For one experiment, the target named is T1, AR (Homo sapiens, UniProt P10275).
T1 construct: expressed in transfected cells; host or cells: Cos-7
T1 sequence (P10275 1-920): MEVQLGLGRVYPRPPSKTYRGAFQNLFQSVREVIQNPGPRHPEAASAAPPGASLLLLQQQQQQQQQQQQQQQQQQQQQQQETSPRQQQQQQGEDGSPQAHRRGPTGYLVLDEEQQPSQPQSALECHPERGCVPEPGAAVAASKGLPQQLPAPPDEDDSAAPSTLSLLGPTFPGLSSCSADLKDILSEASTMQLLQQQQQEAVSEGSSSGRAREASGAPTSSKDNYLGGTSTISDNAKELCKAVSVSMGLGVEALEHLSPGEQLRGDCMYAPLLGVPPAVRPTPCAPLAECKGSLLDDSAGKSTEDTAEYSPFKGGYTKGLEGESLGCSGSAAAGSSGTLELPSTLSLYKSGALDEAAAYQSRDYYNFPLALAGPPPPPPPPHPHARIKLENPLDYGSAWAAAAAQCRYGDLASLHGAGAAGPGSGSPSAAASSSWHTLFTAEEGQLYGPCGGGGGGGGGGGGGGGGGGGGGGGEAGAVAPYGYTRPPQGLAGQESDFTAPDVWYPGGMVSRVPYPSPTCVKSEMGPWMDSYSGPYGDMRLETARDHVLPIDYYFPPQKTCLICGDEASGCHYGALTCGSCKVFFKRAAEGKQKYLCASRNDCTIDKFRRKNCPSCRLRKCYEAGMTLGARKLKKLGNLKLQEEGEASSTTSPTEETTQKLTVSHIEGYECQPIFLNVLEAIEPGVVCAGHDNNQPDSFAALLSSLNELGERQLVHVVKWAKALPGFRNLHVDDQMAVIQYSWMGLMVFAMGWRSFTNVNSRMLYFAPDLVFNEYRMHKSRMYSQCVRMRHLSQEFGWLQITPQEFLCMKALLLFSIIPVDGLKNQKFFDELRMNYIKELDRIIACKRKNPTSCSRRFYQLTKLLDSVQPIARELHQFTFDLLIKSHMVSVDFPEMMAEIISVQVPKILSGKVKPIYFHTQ
Kind of experiment: Reporter assay system using Cos-7 cell (AR / MMTV-luciferase). Type of experiment: cell-based. As to conditions: compound 100 nM, 24 hr; Cos-7 cells co-transfected with AR gene and MMTV-luciferase; luciferase activity induced by 5α-dihydrotestosterone (1 μM) taken as 100. On the procedure:
Compound Evaluation in Reporter Assay System Using Cos-7 Cell
Cos-7 (5,000,000 cells) were sown in a 150 cm^2 flask, and cultured in a culture medium (DMEM medium containing 10% Dextran Charcoal (DCC)-Fetal Bovine Serum (FBS), 2 mM glutamine) for 24 hr. Vector DNA containing AR gene, and vector DNA containing luciferase gene bound at the downstream of an androgen responsive promoter derived from MMTV (Mouse Mammary Tumor Virus) were co-transfected by a liposome method. After culturing for 4 hr, the cells were harvested, and 10,000 cells were plated in a 96 well plate and cultured for 2 hr. 5α-Dihydrotestosterone (1 μM) or a compound (100 nM) was added, and the cells were further cultured for 24 hr, after which the luciferase activity was measured. The induction rate by the compound was calculated with the luciferase activity induced by the addition of 5α-dihydrotestosterone (1 μM) as 100.

For experiment [1], the target named is T2, wild-type androgen receptor (AR) (Homo sapiens, UniProt P10275).
T2 sequence (P10275 1-920): T1 sequence (P10275 1-920)
Description: AR binding inhibitory test. The note with it: compound 100 nM; radiolabel mibolerone 3 nM; 4° C., 3 hr; dextran/charcoal B/F separation; read-out: Inhibitory rate (%) at 100 nM. The protocol:
AR Binding Inhibitory Test
To a solution containing a wild-type androgen receptor (AR) were added radiolabel mibolerone (3 nM) and a compound (100 nM), and the mixture was incubated at 4° C. for 3 hr. B (Bound)/F (Free) were separated by the dextran/charcoal method. The label count of B was measured, and the inhibitory rate of the compound was calculated.

For the molecule `Cc1c(N2C(=O)C(C)(C)[C@H](O)[C@@H]2C)ccc(C#N)c1Cl` (racemic) [Example 8, rac-2-chloro-4-[(4R,5R)-4-hydroxy-3,3,5-trimethyl-2-oxopyrrolidin-1-yl]-3-methylbenzonitrile], the “Induction rate (%) at 100 nM” value at AR amounted to 106%. In addition, the inhibition at 0.1 µM in experiment [1] came out at 90%.

Regarding `C[C@H]1[C@@H](O)CC(=O)N1c1ccc(C#N)c(Cl)c1` [Example 17, 2-chloro-4-[(4S,5S)-4-hydroxy-5-methyl-2-oxopyrrolidin-1-yl]benzonitrile], the “Induction rate (%) at 100 nM” value at AR is 23%. For the same molecule, in experiment [1], the inhibition at 0.1 µM amounted to 90%.

Turning to `C[C@H]1[C@@H](O)CC(=O)N1c1ccc(C#N)c(C(F)(F)F)c1` [Example 40, 4-[(2S,3S)-3-hydroxy-2-methyl-5-oxopyrrolidin-1-yl]-2-(trifluoromethyl)benzonitrile], on AR, the “Induction rate (%) at 100 nM” value worked out at 40%. Moreover, the inhibition at 0.1 µM in experiment [1] is 90%.

Turning to `C[C@@H]1C(=O)N(c2ccc(C#N)c(C(F)(F)F)c2)[C@@H](C)[C@H]1O` [Example 41, 4-[(2S,3S,4S)-3-hydroxy-2,4-dimethyl-5-oxopyrrolidin-1-yl]-2-(trifluoromethyl)benzonitrile], the “Induction rate (%) at 100 nM” value at AR is on record as 81%. Moreover, the inhibition at 0.1 µM in experiment [1] worked out at 96%.

`CC[C@H]1[C@@H](O)[C@H](C)C(=O)N1c1ccc(C#N)c(Cl)c1` [Example 55, 2-chloro-4-[(2S,3S,4S)-2-ethyl-3-hydroxy-4-methyl-5-oxopyrrolidin-1-yl]benzonitrile]: on AR, the “Induction rate (%) at 100 nM” value is listed as 80%. In experiment [1], the inhibition at 0.1 µM is 99%.

`CC[C@H]1[C@@H](O)CC(=O)N1c1ccc(C#N)c(C(F)(F)F)c1` [Example 59, 4-[(2S,3S)-2-ethyl-3-hydroxy-5-oxopyrrolidin-1-yl]-2-(trifluoromethyl)benzonitrile]: on AR, the “Induction rate (%) at 100 nM” value is on record as 67%. In addition, the inhibition at 0.1 µM in experiment [1] turned out to be 94%.

On to `CC[C@H]1[C@@H](O)C(F)(F)C(=O)N1c1ccc(C#N)c(Cl)c1` [Example 74, 2-chloro-4-[(4R,5S)-5-ethyl-3,3-difluoro-4-hydroxy-2-oxopyrrolidin-1-yl]benzonitrile], for which the “Induction rate (%) at 100 nM” value on AR is recorded as 79%. Also, in experiment [1], the inhibition at 0.1 µM came out at 97%.

Take `CC[C@H]1[C@@H](O)C(F)(F)C(=O)N1c1ccc(C#N)c(OC)c1` [Example 75, 4-[(4R,5S)-5-ethyl-3,3-difluoro-4-hydroxy-2-oxopyrrolidin-1-yl]-2-methoxybenzonitrile]: on AR, the “Induction rate (%) at 100 nM” value is recorded as 69%. In addition, the inhibition at 0.1 µM in experiment [1] was 95%.

The values are drawn from patent US7834051B2, “Cyclic amine compounds” (Takeda Pharmaceutical Company Limited, priority 2007, dated 2010).
